In ChEMBL document CHEMBL1909046, “DrugMatrix in vitro pharmacology data”:

Key:
[1] = DRUGMATRIX: Sodium/nucleoside co-transporter radioligand binding (ligand: nitrobenzylthioinosine); assay type: cell membranes, Cavia porcellus, Dunkin-Hartley, Cerebral cortex, Membrane; details: Not Active = under 50% inhibition at 10 µM
Leukotriene C4 synthase = biological target: T1, Leukotriene C4 synthase (Cavia porcellus, UniProt A6XA80); assay: biochemical; assay type: tissue-based, Lung;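 also: enzyme inhibition assay of leukotriene C4 synthase, using LTA4 as the substrate; in other assays of this panel Not Active means under 50% inhibition at 10 µM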
T1 sequence (A6XA80 whole entry): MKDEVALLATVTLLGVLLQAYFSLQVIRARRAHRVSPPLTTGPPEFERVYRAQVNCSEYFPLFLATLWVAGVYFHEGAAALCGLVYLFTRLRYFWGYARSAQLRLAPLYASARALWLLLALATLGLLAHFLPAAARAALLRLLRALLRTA

[2] = biological target: T2, Nitric oxide synthase, inducible (Mus musculus, UniProt P29477); set-up: species or system Escherichia coli;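 also: inhibition of iNOS enzyme activity measured with L-arginine as substrate; in other assays of this panel Not Active means under 50% inhibition at 10 µM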
T2 sequence (P29477 whole entry): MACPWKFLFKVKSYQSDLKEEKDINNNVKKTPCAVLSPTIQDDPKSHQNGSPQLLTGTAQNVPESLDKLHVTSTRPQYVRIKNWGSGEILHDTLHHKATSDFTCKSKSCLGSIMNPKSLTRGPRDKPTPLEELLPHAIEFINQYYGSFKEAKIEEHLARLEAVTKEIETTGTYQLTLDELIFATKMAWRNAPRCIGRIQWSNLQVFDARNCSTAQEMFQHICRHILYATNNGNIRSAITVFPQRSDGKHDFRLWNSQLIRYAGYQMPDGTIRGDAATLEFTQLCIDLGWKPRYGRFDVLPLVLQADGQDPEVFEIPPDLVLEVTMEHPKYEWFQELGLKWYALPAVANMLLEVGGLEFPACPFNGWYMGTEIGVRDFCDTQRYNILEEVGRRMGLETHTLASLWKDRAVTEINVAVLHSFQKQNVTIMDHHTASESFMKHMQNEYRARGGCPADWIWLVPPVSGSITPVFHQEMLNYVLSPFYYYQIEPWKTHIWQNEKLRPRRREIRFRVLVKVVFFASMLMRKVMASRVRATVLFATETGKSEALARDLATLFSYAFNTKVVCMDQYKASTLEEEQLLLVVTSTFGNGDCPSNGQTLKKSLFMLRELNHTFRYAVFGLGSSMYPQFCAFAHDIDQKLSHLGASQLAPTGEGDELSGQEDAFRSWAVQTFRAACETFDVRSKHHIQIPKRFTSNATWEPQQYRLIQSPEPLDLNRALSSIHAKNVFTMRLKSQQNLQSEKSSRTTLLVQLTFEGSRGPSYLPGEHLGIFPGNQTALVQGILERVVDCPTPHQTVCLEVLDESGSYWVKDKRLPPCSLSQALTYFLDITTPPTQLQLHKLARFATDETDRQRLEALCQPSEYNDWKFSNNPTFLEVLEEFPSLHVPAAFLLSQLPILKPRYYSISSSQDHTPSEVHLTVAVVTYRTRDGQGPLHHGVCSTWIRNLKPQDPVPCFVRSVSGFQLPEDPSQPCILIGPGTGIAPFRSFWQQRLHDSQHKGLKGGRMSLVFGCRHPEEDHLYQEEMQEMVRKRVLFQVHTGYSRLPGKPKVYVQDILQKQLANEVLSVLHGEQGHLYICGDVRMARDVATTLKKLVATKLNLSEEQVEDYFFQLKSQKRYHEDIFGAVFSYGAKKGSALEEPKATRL

Interstitial collagenase = biological target: T3, Interstitial collagenase (Homo sapiens, UniProt P03956); assay: biochemical; assay type: tissue-based, Rheumatoid synovial fibroblasts;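 also: MMP-1 enzyme inhibition assay using a peptide substrate; in other assays of this panel Not Active means under 50% inhibition at 10 µM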
T3 sequence (P03956 whole entry): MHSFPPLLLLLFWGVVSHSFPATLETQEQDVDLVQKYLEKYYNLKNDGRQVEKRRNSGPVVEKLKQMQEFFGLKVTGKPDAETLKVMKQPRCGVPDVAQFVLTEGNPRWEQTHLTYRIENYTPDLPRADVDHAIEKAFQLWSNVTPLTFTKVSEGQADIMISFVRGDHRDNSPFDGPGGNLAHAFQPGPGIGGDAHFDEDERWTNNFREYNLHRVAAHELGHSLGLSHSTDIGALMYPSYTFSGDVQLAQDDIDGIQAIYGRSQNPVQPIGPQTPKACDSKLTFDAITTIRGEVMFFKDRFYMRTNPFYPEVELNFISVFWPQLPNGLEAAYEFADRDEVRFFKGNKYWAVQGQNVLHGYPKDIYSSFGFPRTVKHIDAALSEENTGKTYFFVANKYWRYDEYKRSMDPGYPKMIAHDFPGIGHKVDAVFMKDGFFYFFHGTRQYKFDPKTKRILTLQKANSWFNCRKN

[3] = biological target: Tyrosine-protein kinase Fyn (Homo sapiens, UniProt P06241); assay: biochemical; assay type: cell-based, Insect cells; details: insect cells;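 also: enzymatic inhibition of Fyn kinase activity measured with Poly(Glu:Tyr) as the phosphorylation substrate; in other assays of this panel Not Active means under 50% inhibition at 10 µM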
[4] = biological target: Tyrosine-protein kinase Lck (Homo sapiens, UniProt P06239); assay: DRUGMATRIX: Protein Tyrosine Kinase, LCK enzyme inhibition (substrate: Poly(Glu:Tyr)); assay type: cell-based, Insect cells; details: insect cells; Not Active = under 50% inhibition at 10 µM
[5] = DRUGMATRIX: Purinergic P2X radioligand binding (ligand: [3H] alpha, beta-Methylene-ATP); assay type: cell membranes, Oryctolagus cuniculus, New Zealand albino, Urinary bladder, Membrane; details: Not Active = under 50% inhibition at 10 µM
Adenosine receptor A1 = biological target: T4, Adenosine receptor A1 (Homo sapiens, UniProt P30542); assay type: cell membranes, CHO, Membrane; details: cho
T4 sequence (P30542 whole entry): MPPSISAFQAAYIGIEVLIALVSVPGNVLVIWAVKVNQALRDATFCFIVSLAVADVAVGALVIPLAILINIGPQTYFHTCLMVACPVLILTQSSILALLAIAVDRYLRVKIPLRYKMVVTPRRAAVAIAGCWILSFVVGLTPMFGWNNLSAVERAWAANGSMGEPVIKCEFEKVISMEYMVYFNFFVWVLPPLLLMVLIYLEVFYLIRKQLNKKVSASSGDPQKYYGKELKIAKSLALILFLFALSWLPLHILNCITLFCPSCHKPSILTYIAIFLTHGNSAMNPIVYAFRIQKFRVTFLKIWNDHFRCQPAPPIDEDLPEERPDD

Cytochrome P450 2E1 = Cytochrome P450 2E1 (Homo sapiens, UniProt P05181); details: bti-tn-5b1-4; also: in other assays of this panel Not Active means under 50% inhibition at 10 µM
Cytochrome P450 2E1, sequence (P05181 whole entry): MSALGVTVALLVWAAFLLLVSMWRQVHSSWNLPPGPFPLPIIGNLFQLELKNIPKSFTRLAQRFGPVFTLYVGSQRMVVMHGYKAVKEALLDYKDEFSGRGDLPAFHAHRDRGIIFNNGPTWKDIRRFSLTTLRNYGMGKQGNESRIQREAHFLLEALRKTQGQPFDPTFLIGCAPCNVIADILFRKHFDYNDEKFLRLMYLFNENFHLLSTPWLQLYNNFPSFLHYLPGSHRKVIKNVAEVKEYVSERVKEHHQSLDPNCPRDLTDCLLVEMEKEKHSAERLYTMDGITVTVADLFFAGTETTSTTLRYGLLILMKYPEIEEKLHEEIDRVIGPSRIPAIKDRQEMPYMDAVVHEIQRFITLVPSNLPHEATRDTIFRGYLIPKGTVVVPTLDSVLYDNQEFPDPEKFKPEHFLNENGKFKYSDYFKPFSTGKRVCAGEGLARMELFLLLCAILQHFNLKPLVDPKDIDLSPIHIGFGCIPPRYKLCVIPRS

Tyrosine-protein kinase Fyn, sequence (P06241 whole entry): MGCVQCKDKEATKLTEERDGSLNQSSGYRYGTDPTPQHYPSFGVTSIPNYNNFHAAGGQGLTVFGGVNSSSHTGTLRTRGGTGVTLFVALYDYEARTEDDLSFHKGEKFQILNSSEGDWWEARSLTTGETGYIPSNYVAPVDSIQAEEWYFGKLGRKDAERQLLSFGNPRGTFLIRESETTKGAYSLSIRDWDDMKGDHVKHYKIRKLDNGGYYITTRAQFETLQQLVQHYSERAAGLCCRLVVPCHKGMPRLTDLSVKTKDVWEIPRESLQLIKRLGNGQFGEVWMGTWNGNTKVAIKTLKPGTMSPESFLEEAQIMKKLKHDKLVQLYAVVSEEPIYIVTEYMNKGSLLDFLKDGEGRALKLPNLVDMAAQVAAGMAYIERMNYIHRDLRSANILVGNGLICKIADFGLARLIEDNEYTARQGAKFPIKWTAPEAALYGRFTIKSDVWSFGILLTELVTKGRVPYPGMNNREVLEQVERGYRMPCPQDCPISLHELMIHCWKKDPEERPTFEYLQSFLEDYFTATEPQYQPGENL
Tyrosine-protein kinase Lck, sequence (P06239 whole entry): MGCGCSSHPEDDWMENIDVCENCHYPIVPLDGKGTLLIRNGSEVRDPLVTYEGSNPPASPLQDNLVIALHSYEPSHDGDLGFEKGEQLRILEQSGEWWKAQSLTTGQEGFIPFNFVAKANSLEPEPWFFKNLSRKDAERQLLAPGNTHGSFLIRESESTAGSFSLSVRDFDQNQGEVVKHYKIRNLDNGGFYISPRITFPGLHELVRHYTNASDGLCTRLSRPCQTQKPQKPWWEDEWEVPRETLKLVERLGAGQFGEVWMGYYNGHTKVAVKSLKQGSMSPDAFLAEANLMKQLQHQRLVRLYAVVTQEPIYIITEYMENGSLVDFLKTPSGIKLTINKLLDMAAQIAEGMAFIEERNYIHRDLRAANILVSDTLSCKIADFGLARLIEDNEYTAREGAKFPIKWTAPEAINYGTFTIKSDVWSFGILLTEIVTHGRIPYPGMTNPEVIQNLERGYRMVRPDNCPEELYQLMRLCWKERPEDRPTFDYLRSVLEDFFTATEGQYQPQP

CC(C)Cn1cnc2c(N)nc3ccccc3c21 [IMIQUIMOD]
Not Active: IC50 [1] | Ki [1] | IC50 (Leukotriene C4 synthase) | IC50 [2] | IC50 (Interstitial collagenase) | IC50 [3] | IC50 [4] | IC50 [5] | Ki [5] | IC50 (Adenosine receptor A1) | IC50 (Cytochrome P450 2E1) | Ki (Cytochrome P450 2E1)

CC(C)(C#N)c1cc(Cn2cncn2)cc(C(C)(C)C#N)c1 [ANASTROZOLE]
Not Active: IC50 [1] | Ki [1] | IC50 (Leukotriene C4 synthase) | IC50 [2] | IC50 (Interstitial collagenase) | IC50 [3] | IC50 [4] | IC50 [5] | Ki [5] | IC50 (Adenosine receptor A1) | IC50 (Cytochrome P450 2E1) | Ki (Cytochrome P450 2E1)

POVIDONE
Not Active: IC50 [1] | Ki [1] | IC50 (Leukotriene C4 synthase) | Ki (Leukotriene C4 synthase) | IC50 [2] | Ki [2] | IC50 (Interstitial collagenase) | Ki (Interstitial collagenase) | IC50 [3] | Ki [3] | IC50 [4] | Ki [4] | IC50 [5] | Ki [5] | IC50 (Adenosine receptor A1) | Ki (Adenosine receptor A1) | IC50 (Cytochrome P450 2E1) | Ki (Cytochrome P450 2E1)

COc1ccccc1OCCNCC(O)COc1cccc2[nH]c3ccccc3c12 (configuration not stated) [CARVEDILOL]
Not Active: IC50 [1] | Ki [1] | IC50 (Leukotriene C4 synthase) | IC50 [2] | IC50 (Interstitial collagenase) | IC50 [3] | IC50 [4] | IC50 [5] | Ki [5] | IC50 (Adenosine receptor A1) | IC50 (Cytochrome P450 2E1) | Ki (Cytochrome P450 2E1)

Nc1ccc(Cc2ccc(N)cc2)cc1
Not Active: IC50 [1] | Ki [1] | IC50 (Leukotriene C4 synthase) | IC50 [2] | IC50 (Interstitial collagenase) | IC50 [3] | IC50 [4] | IC50 [5] | Ki [5] | IC50 (Adenosine receptor A1) | IC50 (Cytochrome P450 2E1) | Ki (Cytochrome P450 2E1)

CARBOXYMETHYLCELLULOSE
Not Active: IC50 [1] | Ki [1] | IC50 (Leukotriene C4 synthase) | Ki (Leukotriene C4 synthase) | IC50 [2] | Ki [2] | IC50 (Interstitial collagenase) | Ki (Interstitial collagenase) | IC50 [3] | Ki [3] | IC50 [4] | Ki [4] | IC50 [5] | Ki [5] | IC50 (Adenosine receptor A1) | Ki (Adenosine receptor A1) | IC50 (Cytochrome P450 2E1) | Ki (Cytochrome P450 2E1)

c1ccc2sc(SSc3nc4ccccc4s3)nc2c1 [BENZOTHIAZYL DISULFIDE]
Not Active: IC50 [1] | Ki [1] | IC50 (Leukotriene C4 synthase) | IC50 [2] | IC50 (Interstitial collagenase) | IC50 [3] | IC50 [4] | IC50 [5] | Ki [5] | IC50 (Adenosine receptor A1) | IC50 (Cytochrome P450 2E1) | Ki (Cytochrome P450 2E1)

O=C1c2ccccc2C(=O)C1c1ccccc1 [PHENINDIONE]
Not Active: IC50 [1] | Ki [1] | IC50 (Leukotriene C4 synthase) | IC50 [2] | IC50 (Interstitial collagenase) | IC50 [3] | IC50 [4] | IC50 [5] | Ki [5] | IC50 (Adenosine receptor A1) | IC50 (Cytochrome P450 2E1) | Ki (Cytochrome P450 2E1)

Nc1ccc(C(=O)O)c(O)c1 [AMINOSALICYLIC ACID]
Not Active: IC50 [1] | Ki [1] | IC50 (Leukotriene C4 synthase) | IC50 [2] | IC50 (Interstitial collagenase) | IC50 [3] | IC50 [4] | IC50 [5] | Ki [5] | IC50 (Adenosine receptor A1) | IC50 (Cytochrome P450 2E1) | Ki (Cytochrome P450 2E1)

OC[C@H]1O[C@@H]2O[C@H]3[C@H](O)[C@@H](O)[C@@H](O[C@H]4[C@H](O)[C@@H](O)[C@@H](O[C@H]5[C@H](O)[C@@H](O)[C@@H](O[C@H]6[C@H](O)[C@@H](O)[C@@H](O[C@H]7[C@H](O)[C@@H](O)[C@@H](O[C@H]1[C@H](O)[C@H]2O)O[C@@H]7CO)O[C@@H]6CO)O[C@@H]5CO)O[C@@H]4CO)O[C@@H]3CO [ALFADEX]
Not Active: IC50 [1] | Ki [1] | IC50 (Leukotriene C4 synthase) | IC50 [2] | IC50 (Interstitial collagenase) | IC50 [3] | IC50 [4] | IC50 [5] | Ki [5] | IC50 (Adenosine receptor A1) | IC50 (Cytochrome P450 2E1) | Ki (Cytochrome P450 2E1)

COC(=O)C[C@](O)(CCC(C)(C)O)C(=O)O[C@@H]1C(OC)=C[C@]23CCCN2CCc2cc4c(cc2[C@H]13)OCO4 [HARRINGTONINE]
Not Active: IC50 [1] | Ki [1] | IC50 (Leukotriene C4 synthase) | IC50 [2] | IC50 (Interstitial collagenase) | IC50 [3] | IC50 [4] | IC50 [5] | Ki [5] | IC50 (Adenosine receptor A1) | IC50 (Cytochrome P450 2E1) | Ki (Cytochrome P450 2E1)

O=C1CN(/N=C/c2ccc([N+](=O)[O-])o2)C(=O)N1 [NITROFURANTOIN]
Not Active: IC50 [1] | Ki [1] | IC50 (Leukotriene C4 synthase) | IC50 [2] | IC50 (Interstitial collagenase) | IC50 [3] | IC50 [4] | IC50 [5] | Ki [5] | IC50 (Adenosine receptor A1) | IC50 (Cytochrome P450 2E1) | Ki (Cytochrome P450 2E1)

C[N+](C)(C)CCOC(N)=O.[Cl-] [CARBACHOL]
Not Active: IC50 [1] | Ki [1] | IC50 (Leukotriene C4 synthase) | IC50 [2] | IC50 (Interstitial collagenase) | IC50 [3] | IC50 [4] | IC50 [5] | Ki [5] | IC50 (Adenosine receptor A1) | IC50 (Cytochrome P450 2E1) | Ki (Cytochrome P450 2E1)

O=C(NCCN1CCOCC1)c1ccc(Cl)cc1 [MOCLOBEMIDE]
Not Active: IC50 [1] | Ki [1] | IC50 (Leukotriene C4 synthase) | IC50 [2] | IC50 (Interstitial collagenase) | IC50 [3] | IC50 [4] | IC50 [5] | Ki [5] | IC50 (Adenosine receptor A1) | IC50 (Cytochrome P450 2E1) | Ki (Cytochrome P450 2E1)

CC12CCC(CC1)C(C)(C)O2 [EUCALYPTOL]
Not Active: IC50 [1] | Ki [1] | IC50 (Leukotriene C4 synthase) | IC50 [2] | IC50 (Interstitial collagenase) | IC50 [3] | IC50 [4] | IC50 [5] | Ki [5] | IC50 (Adenosine receptor A1) | IC50 (Cytochrome P450 2E1) | Ki (Cytochrome P450 2E1)
